Values quoted from earlier work in US8809627B2, “Plant isoflavone and isoflavanone O-methyltransferase genes” (The Samuel Roberts Noble Foundation, Inc., priority 2006, dated 2014).

Target: T1, MsI7OMT (Medicago sativa, UniProt O24529)
T1 sequence (O24529 1-352): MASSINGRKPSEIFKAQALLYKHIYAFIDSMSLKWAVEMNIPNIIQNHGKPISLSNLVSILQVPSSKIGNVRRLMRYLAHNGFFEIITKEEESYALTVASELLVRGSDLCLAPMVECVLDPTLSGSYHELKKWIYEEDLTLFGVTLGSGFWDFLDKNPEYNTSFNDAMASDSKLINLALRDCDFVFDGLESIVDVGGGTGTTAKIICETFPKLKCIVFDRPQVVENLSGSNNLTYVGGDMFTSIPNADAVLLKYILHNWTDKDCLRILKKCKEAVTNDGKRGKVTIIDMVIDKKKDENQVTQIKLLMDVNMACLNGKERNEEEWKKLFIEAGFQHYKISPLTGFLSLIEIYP
Details: reported by He et al., 1998; cited from earlier work

## O=c1c(-c2ccc(O)cc2)coc2cc(O)c(O)cc12 [6,7,4′-trihydroxyisoflavone]
  Activity of MsI7OMT relative to the activity with daidzein: 136 % of the activity with daidzein
